Measurements reported in patent US7445765B2, “Radiopharmaceutical for diagnostic imaging containing a technetium-99m nitride heterocomplex” (Nihon Medi-Physics Co., Ltd., priority 2000, dated 2008).

Test: Biodistribution of the 99mTc(N) heterocomplexes in rats (organ uptake, heart accumulation, heart/lung and heart/liver ratios)
Format: in vivo, female Sprague-Dawley rats
Settings: rats
Description: The biodistribution was measured by using female Sprague-Dawley rats (SD rats) weighing 200 g to 250 g. Each of the ^99mTc(N) heterocomplexes purified in the manner described above was diluted with phosphate buffer (0.1 M, pH=7.4) to obtain a final solution having an ethanol content of 10%. After the SD rats were anesthetized with an intramuscular injection of a mixture of ketamine (80 mg/kg) and xilazine (19 mg/kg), the jugular vein of each rat was surgically exposed and 100 μL (300 to 370 kBq) of the solution containing each ^99mTc(N) heterocomplexes prepared in the manner described above was injected in the jugular vein. The rats (n=3) were sacrificed by cervical dislocation at different times post injection. The blood was withdrawn from the heart through a syringe and counted. It was assumed that the whole blood content was 6.5% of the total body weight. The organs were excised from the rats, washed with physiological saline, weighed, and counted in a NaI well counter.
For comparison, Tables 19 and 20 show the results, obtained in the same manner as above, of measuring the biodistribution of (^99mTc) (MIBI) and (^99mTc) (Tf) which have been used as pharmaceuticals for diagnostic imaging for blood flow in myocardium.
Tables 21 to 23 show data showing the variations with time of heart accumulation, heart/lung ratios and heart/liver ratios for the ^99mTc(N) heterocomplexes of the present invention.

| Heart accumulation (0 min) | Heart accumulation (2 min) | Heart accumulation (10 min) | Heart accumulation (20 min) | Heart accumulation (30 min) | Heart accumulation (60 min) | Heart accumulation (120 min) | Structure (SMILES) | further results |
| --- | --- | --- | --- | --- | --- | --- | --- | --- |
| 3.08 ± 0.31 % ID/g | 2.06 ± 0.13 % ID/g | 2.37 ± 0.33 % ID/g | 2.49 ± 0.31 % ID/g | 2.57 ± 0.06 % ID/g | 2.26 ± 0.06 % ID/g | 2.45 ± 0.41 % ID/g | COCCC[P]1(CCCOC)CCN(CCOC)CC[P](CCCOC)(CCCOC)[99Tc+]12(#[N])[S]C(N(CCOC)CCOC)=[S]2 [[^99m−Tc(N) (PNP3) (DPODC)^+]] | Heart/liver ratio in biodistribution (0 min): 0.89; Heart/lung ratio in biodistribution (0 min): 2.12; Heart/liver ratio in biodistribution (2 min): 0.56; Heart/lung ratio in biodistribution (2 min): 3.17; Heart/liver ratio in biodistribution (10 min): 0.68; Heart/lung ratio in biodistribution (10 min): 3.54; Heart/liver ratio in biodistribution (20 min): 1.34; Heart/lung ratio in biodistribution (20 min): 5.79; Heart/liver ratio in biodistribution (30 min): 1.98; Heart/lung ratio in biodistribution (30 min): 6.27; Heart/liver ratio in biodistribution (60 min): 5.38; Heart/lung ratio in biodistribution (60 min): 8.37; Heart/liver ratio in biodistribution (120 min): 15.31; Heart/lung ratio in biodistribution (120 min): 12.25 |
| 5.01 ± 0.16 % ID/g | 3.94 ± 0.32 % ID/g | 3.69 ± 0.29 % ID/g | 3.63 ± 0.46 % ID/g | 3.73 ± 0.48 % ID/g | 3.76 ± 0.39 % ID/g | 3.31 ± 0.06 % ID/g | CCOCCN1CC[P](CCCOC)(CCCOC)[99Tc+]2(#[N])([S]C(N(CCOCC)CCOCC)=[S]2)[P](CCCOC)(CCCOC)CC1 [[^99m−Tc(N) (PNP5) (DBODC)^+]] |  |
| 3.35 ± 0.51 % ID/g | 2.33 ± 0.17 % ID/g | 2.91 ± 0.36 % ID/g | 2.86 ± 0.07 % ID/g | 2.47 ± 0.49 % ID/g | 2.74 ± 0.19 % ID/g | 2.44 ± 0.05 % ID/g | CCOCCN1CC[P](CCCOC)(CCCOC)[99Tc+]2(#[N])([S]C(N(CCOCC)C(C)C)=[S]2)[P](CCCOC)(CCCOC)CC1 [[^99m−Tc(N) (PNP5) (ISOET)^+]] |  |
| 2.26 ± 0.82 % ID/g | 1.24 ± 0.14 % ID/g | 1.39 ± 0.30 % ID/g | 1.18 ± 0.18 % ID/g | 1.05 ± 0.19 % ID/g | 1.10 ± 0.11 % ID/g | 1.29 ± 0.16 % ID/g | CCOCCC[P]1(CCCOCC)CCN(CCOCC)CC[P](CCCOCC)(CCCOCC)[99Tc+]12(#[N])[S]C(N(CCOCC)CCOCC)=[S]2 [[^99m−Tc(N) (PNP6) (DBODC)^+]] |  |
